Test results reported in patent publication US20130289019A1, “METHODS OF TREATING BEHAVIORIAL AND/OR MENTAL DISORDERS” (AMAZING GRACE, INC., priority 2012, published 2013).
Marks after values point to notes of the source that are not given here.

What was measured:
Assay type in all cases: in vivo, rat
[1] = test system: rats (NAcShell injection); assay: Porsolt swim test after injection of mAChR agonists and antagonists in the NAcShell; conditions: 600 sec swim test
Protocol: FIG. 3 is a graph illustrating swimming time following injections of cholinergic drugs in NAc (black bars), compared to Ringer (white bars). (A) Local injection of arecoline, a muscarinic agonist, decreased swim time; the animals quickly gave up (40 μg, −41%, n=8, t=3.53, p<0.01; and 80 μg, −66%, n=6, t=4.12, p<0.01). (B) Pirenzepine, an M1 antagonist, increased swimming escape attempts in the manner of an antidepressant, but note this is a local injection (17.5 μg, n=8, +39%, t=3.63, p<0.01; 35 μg, +40%, n=9, t=7.15, p<0.001). […] (D) Local gallamine, an M2 antagonist, decreased swim time (0.13 μg/side, −21%, n=7, t=3.72, p<0.01; 0.44 μg/side, −37%, n=8, t=2.95, p<0.05; 0.88 μg/side, −36%, n=7, t=4.64, p<0.01). Swimming time following Ringer is normalized to 100%, with each bar representing the mean of the normalized responses across subjects. Swimming time following a drug injection is expressed as a percentage of the swimming time following vehicle injection on a different day. Significant changes in the within-subject response to drug injections are indicated with asterisks (* p<0.05, ** p<0.01, *** p<0.001).
The Porsolt swim test is an animal model of depression widely used as a screen for drugs with potential antidepressant effects in humans and for elucidating the pharmacological mechanisms of action of antidepressant medications. For example, the following procedure may be used:
On the first day of this test (day 1), a rodent (typically a rat) is placed in a cylindrical water tank for 15 min. Then after 24 hours (day 2) and 48 hours (day 3), drug and Ringer are administered to the animal in counterbalanced order. Immediately following each injection, the animal is placed in the swim test for 10 min. The length of time it swims during the swim tests is recorded. “Swimming” is defined by escape behaviors (i.e. diving, rigorous paddling with all four legs, circling the tank, and clambering at the tank walls). ‘Immobility’ was scored as floating and treading water just enough to keep the nose above water. Typically, after the first swimming session, animals become behaviorally depressed as shown by swimming less on later test days (day 2 or 3). […] Antidepressants increase swimming without affecting locomotor activity, whereas non-antidepressant drugs such as certain psychostimulants may also decrease immobility, but also increase locomotor activity in the open field test. Therefore, to screen a potential antidepressant, the swim test is typically followed by test for hyperactivity in the open field.
Rats were placed in the 600 sec (10 min) swim test following injections of drugs in the NAcShell. When not swimming, rats floated or made minimal forepaw movements to keep their noses above water. Each rat received one drug counterbalanced with Ringer on a separate day. The shorter control swim times for the gallamine group, relative to groups that received other drugs, may have been due to a seasonal difference. Control injections, shown in the last line, were made 2 mm dorsal to the accumbens (Pirenzepine Ctrl). Asterisks indicate significant difference between drug and Ringer (* p<0.05; ** p<0.01; *** p<0.001).

[2] = test system: rats (NAcShell injection); assay: locomotor activity in a photocell cage after drug injection in the NAcShell; conditions: 10 min following injection in NAcShell; arecoline 40 μg, pirenzepine 35 μg, scopolamine 1 μg, gallamine 0.88 μg
Protocol: FIG. 4 is a graph illustrating the effects of cholinergic drugs on locomotor activity in a photocell cage. Activity in the 10 min following drug injection in the NAcShell (black bars) is expressed as a percentage of control injections normalized to 100% (white bars).
FIG. 4 illustrates the effects of cholinergic drugs on locomotor activity in a photocell cage. Activity in the 10 min following drug injection in the NAc (black bars) is expressed as a percentage of control injections normalized to 100% (white bars).

[3] = test system: extracellular ACh in NAcShell; assay: ACh efflux in NAcShell, infusion by reverse dialysis in freely moving rats; conditions: for extracellular ACh: 20 min infusion in NAcShell by reverse dialysis, oxotremorine 4 mM (hour following infusion), gallamine 1 mM, scopolamine 10 mM probe concentration
Protocol: To determine if the M2 drugs act presynaptically on autoreceptors controlling ACh release, freely moving rats received infusions of an M2 agonist or antagonist in the NAcShell for 20 min by reverse dialysis while extracellular ACh was measured.
To determine if the M2 drugs act presynaptically on autoreceptors controlling ACh release, freely moving rats received infusions of an M2 agonist or antagonist in the NAc for 20 min by reverse dialysis while extracellular ACh was measured.

Row | Structure (SMILES) | Drug (sec), mean swimming time ([1]; 0.13 μg/side in NAcShell) | Percent change of swimming time vs Ringer ([1]; 0.13 μg/side in NAcShell) | Time diff (sec), drug vs Ringer ([1]; 0.13 μg/side in NAcShell) | Percent change of swimming time vs Ringer ([1]; 0.13 μg/side in NAcShell, listed as gallamine) | Drug (sec), mean swimming time ([1]; 0.44 μg/side in NAcShell) | Percent change of swimming time vs Ringer ([1]; 0.44 μg/side in NAcShell) | Time diff (sec), drug vs Ringer ([1]; 0.44 μg/side in NAcShell) | Percent change of swimming time vs Ringer ([1]; 0.44 μg/side in NAcShell, listed as gallamine) | locomotor activity vs Ringer, in words [2] | extracellular ACh [3] | duration of the ACh increase (until return to baseline) ([3]; gallamine 1 mM: time following the infusion, scopolamine 10 mM) | ACh level in the NAc, effect in words ([3]; inventor's data (Chau et al. 2001))
1 | CC[N+](CC)(CC)CCOc1cccc(OCC[N+](CC)(CC)CC)c1OCC[N+](CC)(CC)CC [Gallamine] | 155 ± 26** sec | −21% | -41 s | −21% | 148 ± 24* sec | −37% | -88 s | −37% | not significantly different from Ringer | 437 % of baseline | 20 min | –
2 | O=C1CCCN1CC#CCN1CCCC1 [oxotremorine] | – | – | – | – | – | – | – | – | – | 55 % of baseline | – | decreasing ACh
